Experimental data taken from patent publication US20250177478A1, “G ALPHA Q/11 INHIBITORS FOR USE AS AN ANALGESIC” (University of Florida Research Foundation, Incorporated, priority 2022, published 2025).
Positions of bridges follow the written chain, without caps; N, C: chain ends. Non-standard residues stand in square brackets, D forms with d. Residues, ends and D or L forms follow the SMILES beside them. Leu(3R-O(AcLeu(3R-OH))) = CC(=O)N[C@H](C(=O)O[C@H](C(C)C)[C@H](N)C(=O)O)[C@H](O)C(C)C; NMeT = CN[C@H](C(=O)O)[C@@H](C)O; dPhLac = O=C(O)[C@H](O)Cc1ccccc1; NMeA = CN[C@@H](C)C(=O)O; NMeDha = C=C(NC)C(=O)O

Test system: DRG nociceptors
Assay: Whole cell patch-clamp recordings of acutely dissociated DRG nociceptors
Type: cell-based, mouse
Protocol: F. Acutely dissociated dorsal root ganglion (DRG) Preparation. Male or female mice between 1 and 2 months of age were used for acute DRG isolations. […] Dissociated DRG cultures were prepared as previously described (Perner C et al. “Protocol for dissection and culture of murine dorsal root ganglia neurons to study neuropeptide release.” STAR Protoc (2021) 2:100333). Briefly, DRGs were dissected from 1- to 2-month-old mice in Hank's buffered salt solution (HBSS) and digested with Collagenase A and Dispase II for 25 min at 37° C., centrifuged at 200×g for 5 min, and washed with Dulbecco's modified Eagle's medium (DMEM) supplemented with 10% fetal bovine serum (FBS), glutamate, sodium pyruvate, 1% penicillin and 1% streptomycin. DRGs were then triturated in Neurobasal A medium supplemented with 10% FBS, 1% penicillin, 1% streptomycin, 1% GlutaMAX, 2% B27, […] nerve growth factor (NGF) and […] glial cell line-derived neurotrophic factor (GDNF). After plating on laminin-coated coverslips, cells were incubated at 37° C. overnight. Experiments were performed the day after dissection.
G. Whole cell patch-clamp recordings. Nociceptors were identified by physiological classification protocols (Petruska J C et al. “Subclassified acutely dissociated cells of rat DRG: histochemistry and patterns of capsaicin-, proton-, and ATP-activated currents.” J Neurophysiol (2000) 84:2365-2379) summarized in FIG. 10 and further by responsivity to morphine. Each experimental group consisted of 12-18 DRG recordings from three animals, 1-2 of which were female. Hyperpolarization-activated current (Ih) and kinetics of resulting transient currents were determined by stepping membrane potential from −60 to −110 mV for 500 ms in 10 mV increments (FIG. 10A). Outward currents were identified by first preconditioning membrane potential at −100 mV for 500 ms and then stepping from −60 to 40 mV in 20 mV increments for 200 ms (FIG. 10D). Inward current dynamics were determined by preconditioning at −80 mV and then stepping from −60 to 40 mV in 10 mV increments (FIG. 10G). A 6-s, 0- to 2-nA continuous ramp stimulation protocol was used to determine rheobase. Membrane capacitance (Cm), series resistance (Rs) and input resistance (Ri) were tested with a hyperpolarizing 10 mV pulse of 10 ms duration initially and at a 30 s interval throughout the recording period. Cells were recorded only if initial series resistance was ≤20 MΩ and excluded if Rs varied >20% while recording. Offline analysis identified clustering of a population n=30 with uniform morphine responsivity that was selected for further analysis, with basal parameters #SEM: Cm=27.31±4.72 pF, Ri=492±19.29 MQ, Ih=7.10±2.45 pA·pF−1, IA tau=8.39±0.41 ms and action potential (AP) tau=1.22±0.08 ms. K+ internal was used for all recordings, containing: 6 mM NaCl, 4 mM NaOH, 130 mM K-gluconate, 11 mM ethylene glycol-bis(β-aminoethyl ether)tetraacetic acid (EGTA), 1 mM CaCl2, 1 mM MgCl2, 10 mM N-(2-hydroxyethyl)piperazine-N′-(2-ethanesulphonic acid) (HEPES), 2 mM Na2ATP, and 0.2 mM Na2GTP 0.2, adjusted to pH 7.3-7.4 with HCl. External artificial CSF contained: 125 mM NaCl, 3 mM KCl, 1.2 mM KH2PO4, 1.2 mM MgSO4, 25 mM NaHCO3, 2 mM CaCl2), and 10 mM dextrose 10, adjusted to pH 7.3-7.4 with HCl.

[1] = co-application 100 nM YM + 1 μM morphine

With `C=C1C(=O)N[C@@H](C)C(=O)N(C)[C@@H](C)C(=O)N[C@@H]([C@H](OC(=O)[C@@H](NC(C)=O)[C@H](O)C(C)C)C(C)C)C(=O)N(C)[C@@H]([C@@H](C)OC)C(=O)O[C@H](C)[C@H](NC(C)=O)C(=O)O[C@H](Cc2ccccc2)C(=O)N1C` [YM-254890] (Ac-T[dPhLac][NMeDha]A[NMeA][Leu(3R-O(AcLeu(3R-OH)))][NMeT](Me); ester 1-C) the “inhibition of substance P induced excitation of DRG nociceptors” value (10 nM substance P followed by 10 nM SP and 100 nM YM) was “inhibit the effects of substance P”, the “magnitude of decrease in excitability relative to morphine” value (100 nM YM versus 1 μM morphine) was “smaller as compared with morphine” and the “rapidly inactivating A-type potassium currents (IA), voltage-step protocol 2” value (YM-254890 or morphine alone) was “significantly inhibited IA”. For the same compound, the “AP amplitude, voltage-step protocol” value (bath application alone: 100 nM YM or 1 μM morphine) was “moderately reduced AP amplitude”, the “excitability of DRG nociceptors (rheobase, 0-2 nA ramp stimulation)” value (bath application alone: 1 μM morphine or 100 nM YM) was “significant decrease in the excitability” and the “action potential firing in 0-2 nA ramp protocol” value [1] was “prevented action potential firing throughout the 2-nA ramp protocol in all recordings”. For the same compound, the “evoked AP responses, voltage-step protocol” value [1] was “largely prevented evoked AP responses”, the “evoked AP responses, voltage-step protocol” value (co-application 100 nM YM + 1 μM morphine, listed as YM) was “greatly inhibited evoked depolarization” and the “rapidly inactivating A-type potassium currents (IA), voltage-step protocol 2” value (coadministration of YM-254890 and morphine) was “nearly eliminated IA”.
